Source: patent US8710097B2, “Flavonoid dimers and methods of making and using such” (The Hong Kong Polytechnic University, priority 2006, dated 2014)
Read-outs that look alike come from different tables or passages of the source.

Tests used:
[1] = system: pentamidine-resistant L. enriettii LePentR50 promastigotes; assay: microbe, parasite or virus in culture; conditions: for IC50: Leishmania enriettii, 72 h, read-out: IC50(μM) of synthetic flavonoid, LePentR50, cytotoxicity of compound alone, 72 hrs; for pentamidine sensitization: LePentR50, FIG. 18A
Experimental: (§1) Cell lines and Cell Culture. Promastigotes of Leishmania enriettii (LePentR50, Le wild type, LeMDR1 −/− and LeMDR1-overexpressed LeV160 mutants) and Leishmania donovani (LdAG83, Ld2001 and Ld39) were employed in this study. The former is a natural infective strain of guinea pig and the latter is a clinical strain, which may cause visceral leishmaniasis in human. Both strains were cultured in Schneider's Drosophila Medium (Invitrogen), pH 6.9 supplemented with 10% (v/v) heat inactivated fetal calf serum (Hyclone) with 4 mM glutamine (Sigma) and 25 μg/mL gentamicin solution (Invitrogen), at 27° C. for 4 days (Cloning and functional analysis of an extrachromosomally amplified multidrug resistance-like gene in Leishmania enriettii. Mol. Biochem. Parasitol 1993, 60, 195-208).
Promastigotes of LeV160 were culture in the presence of 160 μg/mL vinblastine. No pentamidine and vinblastine (Sigma) was added to the Le wild type and LeMDR1 −/− mutant.
(§2) The viability of promastigotes was determined by the Cell Titer 96® Aqueous Assay (Promega) that employs a tetrazolium compound (MTS) and electron coupling reagent, phenazine methosulfate (PMS). Promastigotes were seeded into 96-well flat bottom microtiter plate at 1×10^5 cells per well in a final volume of 100 μL medium. To determine the cytotoxic effects of flavonoid dimers to the parasites, various concentrations of flavonoid dimers were added to the promastigotes. To determine the reversal effects of flavonoid dimers with different spacer lengths, various concentrations of antileishmanial drugs, one of pentamidine or SSG, vinblastine and puromycin was added to the wells with or without flavonoid dimers. The parasites were incubated at 27° C. for 72 hrs. Each concentration of antileishmanials with or without the flavonoid dimers was tested in triplicates in each experiment. A 2 mg/mL MTS and 0.92 mg/mL PMS were mixed at a ratio of 20:1 (MTS: PMS). After 72-hr incubation, 10 μL of MTS:PMS mixture was added into each well of microtiter plate. The plate was then incubated at 27° C. for 4 hrs for color development. After 4 hrs of incubation, the OD values were determined at 490 nm using automatic microtiter plate reader (Bio-Rad).

[2] = system: SSG-resistant L. donovani Ld39 promastigotes; assay: microbe, parasite or virus in culture; type: cell-based, Leishmania donovani; conditions: for IC50: Leishmania donovani, 72 h, read-out: IC50(μM) of synthetic flavonoid, Ld39; for SSG resistance modulating activity: Ld39, FIG. 14B
Experimental: as §1, with “195-208). […]” for “195-208).”
as §2

[3] = system: wild type L. donovani LdAG83 promastigotes; assay: Leishmania cell viability (MTS) assay; type: cell-based, Leishmania donovani; conditions: Leishmania donovani, read-out: IC50(μM) of synthetic flavonoid, LdAG83
Experimental: as §1, with “195-208). […]” for “195-208).”
as §2

MDA435/LCC6 MDR cells = assay: cells; conditions: for doxorubicin sensitization / reversing effect on taxol resistance: MDA435/LCC6 MDR; for doxorubicin sensitization: dimers; for reversing effect on taxol resistance: dimers at 5 μM; for reversing activity compared with verapamil: LCC6MDR, taxol, 5 μM
Experimental: MDA435/LCC6 and P388 (both parent and MDR subtype) were maintained in DMEM and RPMI 1640 culture medium supplemented with 10% FBS, respectively. RPMI 1640 media also contained 100 units/ml penicillin and 100 μg/ml streptomycin. Cells were cultured at 37° C. in a humidified atmosphere with 5% CO2. A solution of 0.05% trypsin-EDTA was used to detach the MDA435/LCC6 (both wild type and MDR subtype) cells.
Cell proliferation assay. MDA435/LCC6 and P388 (both parent and MDR subtype) cells were seeded at 2000 and 5000 cells per well, respectively, in 96-well plates. Varying concentrations of anticancer drugs (Doxorubicin, Daunorubicin, Vincristine, Vinblastine, taxol, Mitoxantrone) with or without the flavonoid dimers were added in a final volume of 200 μl and cells were grown for 4 and 3 days for MDA435/LCC6 and P388 (both parent and MDR subtype) cells, respectively. For MDA435/LCC6 (both parent and MDR subtype), the corresponding drugs were added after cell attachment (24 hr incubation). To measure cell proliferation, the cell Titer 960 Aqueous Assay (Promega) was used according to the manufacturer's instructions. Briefly, MTS (2 mg/ml) and PMS (0.92 mg/ml) were mixed in a ratio of 20:1. 30 μl MTS/PMS mixture was added into each well and incubated for 2 hours at 37° C. Optical absorbance at 490 nm was then recorded using an ELISA microtiter plate reader (Bio-Rad). Each experiment was done at least in triplicate and repeated twice. Cytotoxicity of the anticancer drugs was expressed as the fraction of the cells survived relative to the untreated DMSO (0.05%) solvent controls.
MDA435/LCC6 is an estrogen-independent human breast cancer cell line. Its MDR subtype (MDA435/LCC6 MDR) was generated by transducing a retroviral vector directing the constitutive expression of the human MDR1 cDNA, producing a cell line with a classical MDR1 resistance pattern (MDA435/LCC6 and MDA435/LCC6MDR1: ascites models of human breast cancer. Br J Cancer 1996, 73, 154-161). The ability of the apigenin dimers of this invention to reverse taxol resistance in MDA435/LCC6 MDR cells were tested. […] Apigenin monomers 10a and 10b at 10 μM were used as the negative controls.

P388/ADR cells = assay: Doxorubicin accumulation; type: cell-based, murine; conditions: monomer 10b at double concentration of the dimers, FIG. 11A
Experimental: For P388 (both parent and MDR subtype) cells, 1 ml (10^5 cells) confluent cells were aliquot into Eppendorf tube and pre-incubated with flavone dimers for 30 min at 37° C. Doxorubicin (final concentration of 10 μM) was then added and incubated for 2 h at 37° C. at a final concentration of 10 μM. The cell pellets were washed 3 times with cold PBS by using an Eppendorf micro-centrifuge and lysed with 0.3N HCL in 50% ethanol, and sonicated for 30s. After centrifugation at 10000 rpm/min for 3 min, the supernatant was saved. The fluorescence of doxorubicin was measured using a spectrofluorometer (λexcite=470 nm, λemit=585 nm).

For `O=c1cc(-c2ccc(OCCOCCOCCOCCOCCOCCOc3ccc(-c4cc(=O)c5c(O)cc(O)cc5o4)cc3)cc2)oc2cc(O)cc(O)c12` [Compound 9f, 1,19-Bis[4′-((5,7-dihydroxy)-4H-chromen-4-on-2-yl)phenyl]-1,4,7,10,13,16,19-heptaoxanonadecane], the IC50 [1] was 40 ± 5.3 µM, the IC50 [2] was 13 ± 0.6 µM and the IC50 ([3]; 72 h) was 11 ± 2 µM. For the same compound, the doxorubicin sensitization (MDA435/LCC6 MDR cells) was “very little or no doxorubicin sensitization” and the “reversing effect on taxol resistance” value (MDA435/LCC6 MDR cells) was “little or no reversing effect”.

For `O=c1cc(-c2ccc(OCCOCCOCCOCCOCCOc3ccc(-c4cc(=O)c5c(O)cc(O)cc5o4)cc3)cc2)oc2cc(O)cc(O)c12` [Compound 9e, 1,16-Bis[4′-((5,7-dihydroxy)-4H-chromen-4-on-2-yl)phenyl]-1,4,7,10,13,16-hexaoxahexadecane], the IC50 [1] was 70 ± 3 µM, the IC50 [2] was 42 ± 2.3 µM and the IC50 ([3]; 72 h) was 30 ± 1.2 µM. For the same compound, the “activity on doxorubicin accumulation” value (P388/ADR cells) was “little or no activity at all”, the doxorubicin sensitization (MDA435/LCC6 MDR cells) was “very little or no doxorubicin sensitization” and the “reversing effect on taxol resistance” value (MDA435/LCC6 MDR cells) was “little or no reversing effect”.

With `Cc1ccc2c(=O)cc(-c3ccc(OCCOCCOCCOCCOc4ccc(-c5cc(=O)c6ccc(C)cc6o5)cc4)cc3)oc2c1` [Compound 35g, 1,13-Bis[4′-(7-methyl-4H-chromen-4-on-2-yl)phenyl]-1,4,7,10,13-pentaoxamidecane] the “reversing activity compared with verapamil” value (MDA435/LCC6 MDR cells) was “stronger reversing activity than verapamil”.

`CCN(CC)CCCC(C)Nc1c2ccc(Cl)cc2nc2ccc(OC)cc12` (stereo not drawn) [quinacrine, reference compound] was tested, and the pentamidine sensitization [1] was about 4.5 fold.

For `O=c1cc(-c2ccc(OCCOCCOCCOCCOc3ccc(-c4cc(=O)c5ccccc5o4)cc3)cc2)oc2ccccc12` [Compound 35a, 1,13-Bis[4′-(4H-chromen-4-on-2-yl)phenyl]-1,4,7,10,13-pentaoxamidecane], the “reversing activity compared with verapamil” value (MDA435/LCC6 MDR cells) was “stronger reversing activity than verapamil”.

With `C=C[C@H]1C[N@@]2CC[C@H]1C[C@@H]2[C@@H](O)c1ccnc2ccc(OC)cc12` [quinidine, reference compound] the pentamidine sensitization [1] was “less than half-fold sensitization”.

Compound `COC(=O)[C@H]1[C@H]2C[C@@H]3c4[nH]c5cc(OC)ccc5c4CCN3C[C@H]2C[C@@H](OC(=O)c2cc(OC)c(OC)c(OC)c2)[C@@H]1OC` [reserpine, reference compound] has a pentamidine sensitization [1] of about 3.2 fold.

For `O=c1cc(-c2ccc(OCCOCCOCCOCCOc3ccc(-c4cc(=O)c5cc(Cl)cc(Cl)c5o4)cc3)cc2)oc2c(Cl)cc(Cl)cc12` [Compound 35f, 1,13-Bis[4′-(6,8-dichloro-4H-chromen-4-on-2-yl)phenyl]-1,4,7,10,13-pentaoxamidecane], the “reversing activity compared with verapamil” value (MDA435/LCC6 MDR cells) was “stronger reversing activity than verapamil”.

`O=c1cc(-c2ccc(OCCOc3ccc(-c4cc(=O)c5c(O)cc(O)cc5o4)cc3)cc2)oc2cc(O)cc(O)c12` [Compound 9a, 1,4-Bis[4′-((5,7-dihydroxy)-4H-chromen-4-on-2-yl)phenyl]-1,4-dioxabutane] was tested, and the IC50 [1] was over 200 µM, the “SSG resistance modulating activity” value ([2]; dimers at 6 μM) was “did not show substantial SSG resistance modulating activity” and the IC50 [2] was 117 ± 10 µM. The IC50 ([3]; 72 h) was 95 ± 3.2 µM, the “activity on doxorubicin accumulation” value (P388/ADR cells) was “little or no activity at all” and the doxorubicin sensitization (MDA435/LCC6 MDR cells) was “very little or no doxorubicin sensitization”. For the same compound, the “reversing effect on taxol resistance” value (MDA435/LCC6 MDR cells) was “little or no reversing effect”.

For `O=c1cc(-c2ccc(OCCOCCOCCOCCOCCOCCOCCOCCOCCOc3ccc(-c4cc(=O)c5c(O)cc(O)cc5o4)cc3)cc2)oc2cc(O)cc(O)c12` [Compound 9i, 1,28-Bis[4′-((5,7-dihydroxy)-4H-chromen-4-on-2-yl)phenyl]-1,4,7,10,13,16,19,22,25,28-decaoxaoctacosane], the IC50 [2] was 14 ± 0.1 µM and the IC50 ([3]; 72 h) was 10 ± 0.3 µM.

In the case of `O=c1cc(-c2ccc(OCCOCCOCCOCCOc3ccc(-c4cc(=O)c5ccc(F)cc5o4)cc3)cc2)oc2cc(F)ccc12` [Compound 35b, 1,13-Bis[4′-(7-fluoro-4H-chromen-4-on-2-yl)phenyl]-1,4,7,10,13-pentaoxamidecane], the “reversing activity compared with verapamil” value (MDA435/LCC6 MDR cells) is reported as “stronger reversing activity than verapamil”.

`C=C[C@H]1C[N@@]2CC[C@H]1C[C@H]2[C@H](O)c1ccnc2ccc(OC)cc12` [quinine, reference compound] was tested, and the pentamidine sensitization [1] was “less than half-fold sensitization”.

For `Cc1ccc2oc(-c3ccc(OCCOCCOCCOCCOc4ccc(-c5cc(=O)c6cc(C)ccc6o5)cc4)cc3)cc(=O)c2c1` [Compound 35h, 1,13-Bis[4′-(6-methyl-4H-chromen-4-on-2-yl)phenyl]-1,4,7,10,13-pentaoxamidecane], the “reversing activity compared with verapamil” value (MDA435/LCC6 MDR cells) was “stronger reversing activity than verapamil”.

For `O=c1cc(-c2ccc(O)cc2)oc2cc(O)cc(O)c12` [Apigenin, reference compound], the IC50 [1] was 55 ± 2.6 µM, the “SSG resistance modulating activity” value ([2]; 12 μM) was “did not give any significant modulating activity” and the IC50 [2] was 43 ± 5.9 µM. The IC50 ([3]; cytotoxicity of compound alone, 72 hrs) was 32 ± 4.1 µM.
